Our source for the GI50, TGI and CC50 values is paper PMC6152192, “Novel Methylselenoesters as Antiproliferative Agents” (Molecules : A Journal of Synthetic Chemistry and Natural …, 2017).

“And” between values parts separate entries of the source, which are not always exact repeats. Equal entries are not always repeated. Where only a bound is given, the exact number is not on record here.

Common to all, as to format: cell-based
Data set [1] concerns PC-3 (prostate adenocarcinoma). Put plainly: MTT viability assay, PC-3. To be noted: PC-3, 72 h, MTT; for CC50: read-out: LC50 (the source's name). As for the experimental part: (§1) The novel compounds were tested against a panel of different cancer lines: PC-3 (prostate adenocarcinoma), MCF7 (mammary adenocarcinoma), HTB-54 (lung carcinoma), K-562 (chronic myelogenous leukemia) and HT-29 (colorectal adenocarcinoma). Two non-malignant cell lines, BEAS-2B (bronchial epithelial) and 184B5 (mammary epithelial) were also included to evaluate the toxicity of the novel synthesized compounds. The antiproliferative activity was measured with the [3-(4,5-dimethylthiazol-2-yl)-2,5-diphenyltetrazolium bromide] (MTT) assay after 72 h treatment. Six concentrations ranging from 0.1 to 100 μM were tested. MSA is largely known as the main CH3SeH putative precursor and was therefore included as positive control. The following parameters were calculated: GI50 (concentration which reduces the growth by 50%), TGI (concentration completely inhibiting growth) and LC50 (concentration that kills 50% of the cells).
(§2) All cells were purchased from the American Type Culture Collection (ATCC, Barcelona, Spain). HT-29 (colorectal adenocarcinoma), HTB-54 (grade III lung carcinoma), MCF7 (mammary adenocarcinoma), PC-3 (grade IV prostate adenocarcinoma) and K-562 (chronic myelogenous leukemia) were cultured in RPMI (Gibco, Madrid, Spain), 10% FBS (Gibco), 100 units/mL penicillin and 100 μg/mL streptomycin (Gibco). BEAS-2B cell line (normal epithelial lung) was cultured in DMEM (Gibco), 10% FBS, 100 units/mL penicillin and 100 μg/mL streptomycin. 184B5 (normal mammary gland) cell line was cultured in DMEM:F12 supplemented with 5% FBS, 1 × ITS (Lonza, Barcelona, Spain), 100 nM hydrocortisone (Sigma-Aldrich), 2 mM sodium pyruvate (Lonza), 20 ng/mL EGF (Sigma-Aldrich), 0.3 nM trans-retinoic acid (Sigma-Aldrich), 100 units/mL penicillin and 100 µg/mL streptomycin. Cells were cultured at 37 °C under 5% CO2.
(§3) Cell viability after treatment was assessed by the well-known 3-(4,5-dimethyl-thiazol-2-yl)-2,5-diphenyltetrazolium bromide (MTT, Sigma-Aldrich) assay. Briefly, 10,000 cells were seeded in 96-well plates, treated and incubated for 72 h. Dilutions of the compounds in cell medium were freshly prepared from a 0.01 M stock in DMSO. After treatment, 50 μL of MTT solution in PBS (2 mg/mL) were added and cells were incubated for 4 h. Medium was removed and 150 μL of DMSO was added to dissolve the formed formazan crystals. Absorbance was read at 550 nm in a microplate absorbance reader (Sunrise, Tecan, Männedorf, Switzerland).

The test system of data set [2] is MCF7 (mammary adenocarcinoma). Put plainly: MTT viability assay, MCF7. To be noted: MCF7, 72 h, MTT; for CC50: read-out: LC50 (the source's name). As for the experimental part: as §1, §2, §3
The subject of data set [3] is HT-29 (colorectal adenocarcinoma). Kind of data set: MTT viability assay, HT-29. To be noted: HT-29, 72 h, MTT; for CC50: read-out: LC50 (the source's name). On the procedure:
as §1, §2, §3

In data set [4] the test system is BEAS-2B (non-malignant bronchial epithelial). Kind of data set: MTT viability assay, BEAS-2B. Particulars: BEAS-2B non-malignant, 72 h, MTT; for CC50: read-out: LC50 (the source's name). As for the experimental part: as §1, §2, §3
For data set [5], the system named is K-562 (chronic myelogenous leukemia). Kind of data set: MTT viability assay, K-562. To be noted: K-562, 72 h, MTT; for CC50: read-out: LC50 (the source's name). On the procedure: as §1, §2, §3
Another data set deals with HTB-54 (lung carcinoma). Kind of data set: MTT viability assay, HTB-54. Particulars: HTB-54, 72 h, MTT; for CC50: read-out: LC50 (the source's name). As for the experimental part: as §1, §2, §3
A general note: Tetrazolium assays rely on reduction of a dye to a coloured formazan, in cell work by metabolically active cells.

The test system of data set [6] is 184B5 (non-malignant mammary epithelium). Put plainly: MTT viability assay, 184B5. Particulars: 184B5 non-malignant, 72 h, MTT; for CC50: read-out: LC50 (the source's name). As for the experimental part:
as §1, §2, §3

As a reminder, the GI50 is the concentration that inhibits growth by half. As usually defined, the TGI is the concentration giving total growth inhibition. Higher therefore signals less potent growth arrest.

With “Methyl 1,3-benzodioxole-5-carboselenoate [Compound 8]”, the GI50 in data set [1] came to 5.7 ± 1.6 µM; in data set [2] it was 4.6 ± 0.5 µM; in data set [3], 5.9 ± 0.8 µM; in data set [4] it was 3.1 ± 0.3 µM; in data set [5], 29.7 ± 4.7 µM; with HTB-54 (lung carcinoma), 6 ± 0.9 µM. Besides, the GI50 in data set [6] was 3.7 ± 0.3 µM. For the same substance, the TGI in data set [1] worked out at 11.0 ± 3.1 µM; in data set [2] it was 9.2 ± 1.3 µM; in data set [3], 27.7 ± 4.5 µM; in data set [4], 5.6 ± 0.6 µM; in data set [5], 62.6 ± 3.9 µM; in the data set on HTB-54 (lung carcinoma) it was 23.2 ± 2.6 µM. In data set [6], this substance had a TGI of 6.4 ± 0.2 µM. For the same substance, the CC50 was found to be 96 ± 4.7 µM in data set [1]; 68.7 ± 2.5 µM in data set [2]; 81.1 ± 4 µM in data set [3]; 8 ± 1.1 µM in data set [4]; 95.4 ± 4.9 µM in data set [5]; 77.1 ± 4.9 µM with HTB-54 (lung carcinoma). In data set [6], the CC50 came out at 9 ± 0.4 µM.

As to “Methyl 9-acridinecarboselenoate [Compound 13]”, the TGI in data set [1] is more than 100 µM; in data set [2], 35.4 ± 4.7 µM; in data set [3], 16.5 ± 1.9 µM; in data set [4], 6.4 ± 0.2 µM; in data set [6], 26.8 ± 1.0 µM. For the same substance, the CC50 in data set [1] is more than 100 µM; in data set [2], 83.4 ± 4.1 µM; in data set [3], 66.6 ± 0.1 µM; in data set [4] it was 8.9 ± 0.4 µM; in data set [6], 65 ± 4.5 µM. The GI50 amounted to 4.2 ± 1.8 µM in data set [2], 6 ± 0.5 µM in data set [3], 3.8 ± 0.1 µM in data set [4] and 6.6 ± 1.2 µM in data set [6].

In the case of “Methyl 2-phenyl-4-quinolinecarboselenoate [Compound 10]”, the GI50 in data set [1] came to 4.4 ± 1.3 µM; in data set [2], 5.6 ± 1.3 µM; in data set [3], 4.1 ± 0.3 µM; in data set [4] it was 3.1 ± 0.5 µM; in data set [5], 9.7 ± 4.9 µM; with HTB-54 (lung carcinoma), 5.9 ± 1.1 µM. Further, it took 3.9 ± 0.7 µM to inhibit growth in data set [6] by half (GI50). Further, the CC50 in data set [1] is 70.9 ± 5.2 µM; in data set [2] it was more than 100 µM; in data set [3] it was 35 ± 2.4 µM; in data set [4] it was 7.8 ± 0.5 µM; in data set [5], more than 100 µM; in the data set with HTB-54 (lung carcinoma), 64.4 ± 4.2 µM. Besides, the CC50 in data set [6] was found to be 8.7 ± 0.4 µM. Moreover, the TGI in data set [2] came out at 51.3 ± 3.7 µM; in data set [3], 7.5 ± 0.7 µM; in data set [4], 5.5 ± 0.4 µM; in data set [5], 59.1 ± 3.5 µM; in the data set on HTB-54 (lung carcinoma), 16.7 ± 2.3 µM; in data set [6] it was 6.3 ± 0.5 µM.

As for “Methyl 2-thiophencarboselenoate [Compound 4]”, the GI50 is 5.2 ± 0.9 µM in data set [1]; 5.3 ± 1.4 µM in data set [2]; 3.4 ± 0.2 µM in data set [3]; 2.9 ± 0.3 µM in data set [4]; 40.6 ± 4.5 µM in data set [5]; 8.5 ± 3.1 µM in the data set with HTB-54 (lung carcinoma). The substance also yielded a GI50 in data set [6] of 3.6 ± 0.8 µM. The TGI in data set [1] was 19.4 ± 3.6 µM; in data set [2], 22.8 ± 3.8 µM; in data set [3], 7.2 ± 1.2 µM; in data set [4], 5.8 ± 0.7 µM; in data set [5], 74.6 ± 4.9 µM; in the data set with HTB-54 (lung carcinoma), 39.0 ± 3.1 µM. Besides, in data set [6], the TGI came to 7.2 ± 1.4 µM. Besides, the CC50 in data set [1] was 62 ± 4.9 µM; in data set [2], 89.6 ± 4.1 µM; in data set [3] it was 47.5 ± 3.2 µM; in data set [4], 8.7 ± 2.1 µM; in data set [5], more than 100 µM; with HTB-54 (lung carcinoma), 73.9 ± 4.1 µM. Besides, the CC50 in data set [6] is 27.9 ± 4.6 µM.

Consider “Dimethyl 5-cyano-1,3-benzenedicarboselenoate [Compound 14]”, for which the GI50 in data set [1] came to 7.2 ± 3.5 µM; in data set [2] it was 4.9 ± 0.8 µM; in data set [3], 3.8 ± 0.1 µM; in data set [4], 3.2 ± 0.7 µM; in data set [5] it was 29.9 ± 0.6 µM; with HTB-54 (lung carcinoma), 3.8 ± 0.6 µM. Moreover, the GI50 in data set [6] came out at 3.8 ± 0.7 µM. The TGI amounted to 32.3 ± 3.7 µM in data set [1]; 8.4 ± 1.1 µM in data set [2]; 7.9 ± 0.7 µM in data set [3]; 5.5 ± 0.5 µM in data set [4]; 54.7 ± 0.7 µM in data set [5]; 6.5 ± 0.6 µM in data set [6]. Moreover, the CC50 in data set [1] was 68.7 ± 3 µM; in data set [2], 54.4 ± 2.7 µM; in data set [3], more than 100 µM; in data set [4], 7.8 ± 0.3 µM; in data set [5], 79.5 ± 0.7 µM; in the data set with HTB-54 (lung carcinoma) it was 66.5 ± 4.5 µM. Also, the CC50 in data set [6] was 9.3 ± 0.7 µM.

On to “Methyl 4-methoxybenzoselenoate [Compound 2]”, for which the concentration for 50% growth inhibition (GI50) in data set [1] was 7.3 ± 1.7 µM; in data set [2], 4.1 ± 0.8 µM; in data set [3], 4.1 ± 0.1 µM; in data set [4], 3.2 ± 0.5 µM; in data set [5] it was 40.8 ± 4.8 µM; in the data set on HTB-54 (lung carcinoma), 6.8 ± 1.7 µM. The substance also yielded a GI50 in data set [6] of 3.7 ± 0.8 µM. Moreover, the TGI came out at 45.1 ± 4.5 µM in data set [1]; 9.3 ± 4.1 µM in data set [2]; 7.5 ± 1.1 µM in data set [3]; 5.8 ± 0.6 µM in data set [4]; 70.6 ± 5.9 µM in data set [5]; 29.7 ± 4.3 µM in the data set with HTB-54 (lung carcinoma). For the same substance, the TGI in data set [6] came out at 6.4 ± 1.5 µM. Moreover, the CC50 in data set [1] is more than 100 µM; in data set [2], 74.8 ± 4 µM; in data set [3], 50 ± 2.4 µM; in data set [4], 8.4 ± 1 µM; in data set [5], more than 100 µM; in the data set with HTB-54 (lung carcinoma) it was 70 ± 2.9 µM. Besides, the CC50 in data set [6] was determined as 9 ± 2.1 µM.

For the substance “Methyl 2-(4-pyridyl)thiazole-4-carboselenoate [Compound 12]”, the GI50 in data set [1] is > 10 µM and 16.9 µM; in data set [2], 4.4 ± 1 µM; in data set [3], 5.1 ± 0.1 µM; in data set [4] it was 3.7 ± 1.3 µM; in data set [5], 82 ± 4.4 µM; in the data set with HTB-54 (lung carcinoma), 9.8 ± 5.1 µM. In addition, growth in data set [6] was halved (GI50) at 3.4 ± 0.3 µM. Further, the TGI in data set [1] is 50.9 ± 4.9 µM; in data set [2], 8.1 ± 1.7 µM; in data set [3], 14.2 ± 6.6 µM; in data set [4], 6.4 ± 1.3 µM; in data set [5], more than 100 µM; in the data set with HTB-54 (lung carcinoma) it was 44.9 ± 3.7 µM. Also, the TGI in data set [6] amounted to 6.5 ± 0.8 µM. The CC50 in data set [1] was 85 ± 4.7 µM; in data set [2] it was 56.2 ± 9.6 µM; in data set [3], more than 100 µM; in data set [4], 9.2 ± 1 µM; in data set [5] it was more than 100 µM; in the data set with HTB-54 (lung carcinoma) it was 80.5 ± 3.5 µM. Further, in data set [6], the CC50 worked out at 9.6 ± 2.8 µM.

Take “Methyl benzo[b]thiophene-2-carboselenoate [Compound 7]”: the GI50 in data set [1] is > 10 µM and 18.4 µM; in data set [2], 6.9 ± 1.4 µM; in data set [3], 3.7 ± 0.2 µM; in data set [4] it was 3.9 ± 0.6 µM; in data set [5], 29.2 ± 4.4 µM; in the data set with HTB-54 (lung carcinoma), > 10 µM and 17.5 µM. Further, the GI50 in data set [6] turned out to be 3.9 ± 1.2 µM. The TGI worked out at 47.8 ± 3.9 µM in data set [1]; 61.6 ± 4.1 µM in data set [2]; 7.4 ± 0.9 µM in data set [3]; 6.8 ± 0.8 µM in data set [4]; 58.8 ± 1.5 µM in data set [5]; 55.4 ± 4.4 µM in the data set on HTB-54 (lung carcinoma). Also, the concentration for total growth inhibition (TGI) in data set [6] stood at 6.9 ± 1.7 µM. Moreover, the CC50 in data set [1] is 77.3 ± 4.5 µM; in data set [2] it was more than 100 µM; in data set [3] it was 41.8 ± 4.5 µM; in data set [4], 9.8 ± 1.1 µM; in data set [5] it was 88.3 ± 3.3 µM; in the data set with HTB-54 (lung carcinoma), 93.4 ± 4.8 µM. In addition, the CC50 in data set [6] turned out to be 9.9 ± 0.8 µM.
